≈ marks a conversion by molar mass, not a printed value.
Tests used:
Format in all cases: functional
Streptococcus pneumoniae [1] = assay: In vitro antibacterial activity of 5979 strain of Gram positive bacteria Streptococcus pneumoniae
Streptococcus pyogenes [2] = assay: In vitro antibacterial activity of 930 strain of Gram positive bacteria Streptococcus pyogenes
Streptococcus pyogenes [3] = assay: In vitro antibacterial activity of EES61 strain of Gram positive bacteria Streptococcus pyogenes
Streptococcus pneumoniae [4] = assay: In vitro antibacterial activity of ATCC 6303 strain of Gram positive bacteria Streptococcus pneumoniae
Staphylococcus aureus [5] = assay: In vitro antibacterial activity of A-5278 strain of Gram positive bacteria Staphylococcus aureus
Streptococcus pyogenes [6] = assay: In vitro antibacterial activity of PIU2584 strain of Gram positive bacteria Streptococcus pyogenes
Haemophilus influenzae = assay: In vitro antibacterial activity of DILL strain of Gram negative bacteria Haemophilus influenzae
Staphylococcus aureus [7] = assay: In vitro antibacterial activity of A5177 strain of Gram positive bacteria Staphylococcus aureus
Streptococcus pneumoniae [8] = assay: In vitro antibacterial activity of 5649 strain of Gram positive bacteria Streptococcus pneumoniae
Staphylococcus aureus [9] = assay: In vitro antibacterial activity of 6538P strain of Gram positive bacteria Staphylococcus aureus

MIC (Streptococcus pneumoniae [1]) [µg/mL] | MIC (Streptococcus pyogenes [2]) [µg/mL] | MIC (Streptococcus pyogenes [3]) [µg/mL] | MIC (Streptococcus pneumoniae [4]) [µg/mL] | MIC (Staphylococcus aureus [5]) [µg/mL] | MIC (Streptococcus pyogenes [6]) [µg/mL] | MIC (Haemophilus influenzae) [µg/mL] | MIC (Staphylococcus aureus [7]) [µg/mL] | MIC (Streptococcus pneumoniae [8]) [µg/mL] | MIC (Staphylococcus aureus [9]) [µg/mL] | Compound
> 64 | 64 (≈ 84.2 µM) | 0.03 (≈ 0.0395 µM) | 0.06 (≈ 0.0789 µM) | > 100 | 1 (≈ 1.32 µM) | 16 (≈ 21.1 µM) | 0.39 (≈ 0.513 µM) | 2 (≈ 2.63 µM) | 0.39 (≈ 0.513 µM) | CC[C@H]1OC(=O)/C(C)=C/[C@H](C)[C@@H](O[C@@H]2O[C@H](C)C[C@H](N(C)C)[C@H]2O)[C@@](C)(OC)C[C@@H](C)C(=O)[C@H](C)[C@H]2N(NCCCc3ccc(OC)cc3)C(=O)O[C@]12C
32 (≈ 41.9 µM) | 16 (≈ 20.9 µM) | 0.25 (≈ 0.327 µM) | 0.25 (≈ 0.327 µM) | 50 (≈ 65.4 µM) | 1 (≈ 1.31 µM) | 32 (≈ 41.9 µM) | 0.39 (≈ 0.51 µM) | 2 (≈ 2.62 µM) | 0.39 (≈ 0.51 µM) | CC[C@H]1OC(=O)/C(C)=C/[C@H](C)[C@@H](O[C@@H]2O[C@H](C)C[C@H](N(C)C)[C@H]2O)[C@@](C)(OC)C[C@@H](C)C(=O)[C@H](C)[C@H]2N(NCCCc3cccc(Cl)c3)C(=O)O[C@]12C
> 128 | > 128 | > 128 | > 128 | > 100 | > 128 | > 128 | > 100 | > 128 | > 100 | CC[C@H]1OC(=O)/C(C)=C/[C@H](C)[C@@H](O[C@@H]2O[C@H](C)C[C@H](N(C)C)[C@H]2O)[C@@](C)(OC)C[C@@H](C)[C@@H]2NN3C(=O)O[C@@]1(C)[C@H]3[C@H]2C
8 (≈ 10 µM) | 8 (≈ 10 µM) | 0.06 (≈ 0.0751 µM) | 0.125 (≈ 0.156 µM) | 25 (≈ 31.3 µM) | 1 (≈ 1.25 µM) | 16 (≈ 20 µM) | 0.39 (≈ 0.488 µM) | 2 (≈ 2.5 µM) | 0.39 (≈ 0.488 µM) | CC[C@H]1OC(=O)/C(C)=C/[C@H](C)[C@@H](O[C@@H]2O[C@H](C)C[C@H](N(C)C)[C@H]2O)[C@@](C)(OC)C[C@@H](C)C(=O)[C@H](C)[C@H]2N(NCCCc3ccc(Cl)cc3Cl)C(=O)O[C@]12C
64 (≈ 87.7 µM) | 32 (≈ 43.8 µM) | 0.06 (≈ 0.0822 µM) | 0.125 (≈ 0.171 µM) | 50 (≈ 68.5 µM) | 1 (≈ 1.37 µM) | 16 (≈ 21.9 µM) | 0.1 (≈ 0.137 µM) | 2 (≈ 2.74 µM) | 0.1 (≈ 0.137 µM) | CC[C@H]1OC(=O)/C(C)=C/[C@H](C)[C@@H](O[C@@H]2O[C@H](C)C[C@H](N(C)C)[C@H]2O)[C@@](C)(OC)C[C@@H](C)C(=O)[C@H](C)[C@H]2N(NCCCc3ccccc3)C(=O)O[C@]12C
16 (≈ 20.8 µM) | 16 (≈ 20.8 µM) | 0.06 (≈ 0.0779 µM) | 0.06 (≈ 0.0779 µM) | 100 (≈ 130 µM) | 2 (≈ 2.6 µM) | 16 (≈ 20.8 µM) | 0.78 (≈ 1.01 µM) | 2 (≈ 2.6 µM) | 0.78 (≈ 1.01 µM) | CC[C@H]1OC(=O)/C(C)=C/[C@H](C)[C@@H](O[C@@H]2O[C@H](C)C[C@H](N(C)C)[C@H]2O)[C@@](C)(OC)C[C@@H](C)C(=O)[C@H](C)[C@H]2N(NCc3ccc(C(F)(F)F)cc3)C(=O)O[C@]12C
> 64 | > 64 | 0.06 (≈ 0.081 µM) | 0.125 (≈ 0.169 µM) | > 100 | 0.5 (≈ 0.675 µM) | 8 (≈ 10.8 µM) | 0.39 (≈ 0.526 µM) | 1 (≈ 1.35 µM) | 0.39 (≈ 0.526 µM) | CC[C@H]1OC(=O)/C(C)=C/[C@H](C)[C@@H](O[C@@H]2O[C@H](C)C[C@H](N(C)C)[C@H]2O)[C@@](C)(OC)C[C@@H](C)C(=O)[C@H](C)[C@H]2N(NCc3c[nH]c4ccccc34)C(=O)O[C@]12C
> 128 | 128 (≈ 166 µM) | 0.004 (≈ 0.00519 µM) | 0.004 (≈ 0.00519 µM) | > 100 | 1 (≈ 1.3 µM) | 8 (≈ 10.4 µM) | 0.2 (≈ 0.259 µM) | 0.5 (≈ 0.649 µM) | 0.2 (≈ 0.259 µM) | CC[C@H]1OC(=O)/C(C)=C/[C@H](C)[C@@H](O[C@@H]2O[C@H](C)C[C@H](N(C)C)[C@H]2O)[C@@](C)(OC)C[C@@H](C)C(=O)[C@H](C)[C@H]2N(NCCCn3nc4ccccc4n3)C(=O)O[C@]12C
8 (≈ 10 µM) | 2 (≈ 2.51 µM) | 0.008 (≈ 0.01 µM) | 0.004 (≈ 0.00502 µM) | > 100 | 0.25 (≈ 0.314 µM) | 1 (≈ 1.25 µM) | 0.05 (≈ 0.0627 µM) | 0.5 (≈ 0.627 µM) | 0.1 (≈ 0.125 µM) | CC[C@H]1OC(=O)C(C)C(=O)[C@H](C)[C@@H](O[C@@H]2O[C@H](C)C[C@H](N(C)C)[C@H]2O)[C@@](C)(OC)C[C@@H](C)C(=O)[C@H](C)[C@H]2N(NCCCc3ccnc4ccccc34)C(=O)O[C@]12C (stereo not given in full)
128 (≈ 165 µM) | 64 (≈ 82.6 µM) | 0.004 (≈ 0.00516 µM) | 0.004 (≈ 0.00516 µM) | > 100 | 0.25 (≈ 0.323 µM) | 8 (≈ 10.3 µM) | 0.2 (≈ 0.258 µM) | 0.25 (≈ 0.323 µM) | 0.2 (≈ 0.258 µM) | CC[C@H]1OC(=O)/C(C)=C/[C@H](C)[C@@H](O[C@@H]2O[C@H](C)C[C@H](N(C)C)[C@H]2O)[C@@](C)(OC)C[C@@H](C)C(=O)[C@H](C)[C@H]2N(NCCCc3cccc([N+](=O)[O-])c3)C(=O)O[C@]12C

Reference: ChEMBL document CHEMBL1131216, “Anhydrolide macrolides. 2. Synthesis and antibacterial activity of 2,3-anhydro-6-O-methyl 11,12-carbazate erythromycin A analogues” (1998)
